Test [1] deals with Platelet-derived growth factor receptor alpha (Homo sapiens, UniProt P16234). The experiment in a line: Inhibition of recombinant human N-terminal GST-His6 tagged PDGFRalpha (Q551 to L1089 residues) expressed in Sf9 insect cells using poly(Ala,Glu,Lys,Tyr)6:2:5:1 hydrobromide as substrate in presence of [gamma-33P]ATP.
Test [2] relates to HCC827. The test can be described thus: Cytotoxicity against human HCC827 cells assessed as growth inhibition after 72 hrs by calcein-AM dye based fluorescence assay. The format is functional. The conditions noted are these: HCC827, 72 h.
In test [3] the test system is BT-474. The experiment in a line: Cytotoxicity against human BT474 cells assessed as growth inhibition after 72 hrs by calcein-AM dye based fluorescence assay. The format is functional. The note with it: BT-474, 72 h.
Test [4] deals with MCF7. The test can be described thus: Cytotoxicity against human MCF7 cells assessed as growth inhibition after 72 hrs by calcein-AM dye based fluorescence assay. The format is functional. The conditions noted are these: MCF7, 72 h.
Test [5] deals with HCC827. The experiment in a line: Cell cycle arrest in human HCC827 cells assessed as G1/G2-M ratio at GI50 concentration after 24 hrs by propidium iodide staining-based flow cytometry relative to control. The format is functional. (Flow cytometry measures light scatter and fluorescence of single cells or particles in a stream.)
In test [6] the test system is EOL1. The experiment in a line: Cytotoxicity against human EOL-1 cells assessed as growth inhibition after 72 hrs by calcein-AM dye based fluorescence assay. The format is functional. The note with it: EOL1, 72 h.
Test [7] has as its target Cyclin-dependent kinase 2/cyclin E1 (Homo sapiens, UniProt P24941). The test can be described thus: Inhibition of CDK2/cyclin E (unknown origin) expressed in baculovirus infected insect Sf9 cells using histone H1 as substrate in presence of [gamma-33P]ATP.
Test [8] concerns EOL1. The test can be described thus: Cell cycle arrest in human EOL-1 cells assessed as G1/G2-M ratio at GI50 concentration after 24 hrs by propidium iodide staining-based flow cytometry relative to control. It counts as functional.
The test system of test [9] is K562. The test can be described thus: Cytotoxicity against human K562 cells assessed as growth inhibition after 72 hrs by calcein-AM dye based fluorescence assay. It counts as functional. The note with it: K562, 72 h.
Test [10] has as its system K562. The experiment in a line: Cell cycle arrest in human K562 cells assessed as G1/G2-M ratio at GI50 concentration after 24 hrs by propidium iodide staining-based flow cytometry relative to control. The format is functional.

Consider 15 compounds from ChEMBL document CHEMBL4177643, “Trisubstituted purine inhibitors of PDGFRα and their antileukemic activity in the human eosinophilic cell line EOL-1” (Bioorg Med Chem, 2017).

Structures are written as SMILES.

Platelet-derived growth factor receptor alpha, sequence (P16234 whole entry, the tested form may be a part): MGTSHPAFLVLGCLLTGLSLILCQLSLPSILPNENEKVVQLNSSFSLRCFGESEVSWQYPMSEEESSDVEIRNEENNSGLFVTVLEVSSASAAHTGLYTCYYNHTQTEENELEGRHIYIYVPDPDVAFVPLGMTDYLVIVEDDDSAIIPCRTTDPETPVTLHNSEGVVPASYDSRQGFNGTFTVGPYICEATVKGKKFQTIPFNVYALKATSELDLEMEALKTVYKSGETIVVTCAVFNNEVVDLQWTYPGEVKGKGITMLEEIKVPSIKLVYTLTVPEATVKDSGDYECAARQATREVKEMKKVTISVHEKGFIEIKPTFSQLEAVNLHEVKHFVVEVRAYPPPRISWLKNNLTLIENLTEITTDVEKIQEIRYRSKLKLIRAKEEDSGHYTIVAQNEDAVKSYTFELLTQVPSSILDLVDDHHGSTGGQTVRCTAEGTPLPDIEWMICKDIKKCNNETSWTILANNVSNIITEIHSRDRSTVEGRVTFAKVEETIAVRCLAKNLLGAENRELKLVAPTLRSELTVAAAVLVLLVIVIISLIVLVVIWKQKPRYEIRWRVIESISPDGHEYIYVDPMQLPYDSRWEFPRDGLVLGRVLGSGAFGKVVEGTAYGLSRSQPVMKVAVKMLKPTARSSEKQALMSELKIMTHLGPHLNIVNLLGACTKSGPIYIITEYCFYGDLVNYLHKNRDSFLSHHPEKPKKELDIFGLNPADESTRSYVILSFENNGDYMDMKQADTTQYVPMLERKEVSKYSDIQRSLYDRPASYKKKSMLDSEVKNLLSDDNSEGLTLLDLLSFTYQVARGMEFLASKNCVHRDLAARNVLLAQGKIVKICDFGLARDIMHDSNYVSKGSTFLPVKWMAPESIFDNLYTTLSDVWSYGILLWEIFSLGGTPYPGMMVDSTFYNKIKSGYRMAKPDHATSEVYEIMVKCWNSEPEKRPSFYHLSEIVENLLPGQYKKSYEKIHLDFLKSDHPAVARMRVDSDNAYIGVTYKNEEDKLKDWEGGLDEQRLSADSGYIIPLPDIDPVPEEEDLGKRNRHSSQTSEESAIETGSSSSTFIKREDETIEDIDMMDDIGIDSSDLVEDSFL

Broadly, the IC50 is the concentration that inhibits the measured activity by half. As usually defined, the GI50 is the concentration giving 50% growth inhibition. Consider `N[C@H]1CC[C@H](Nc2nc(Nc3cccc(Cl)c3)c3ncn(Cc4ccccc4)c3n2)CC1`, for which the IC50 in [1] stood at 5100 nM; in test [7], 2830 nM. The concentration for 50% growth inhibition (GI50) in test [2] was 13700 nM; in [3], 10200 nM; in test [4], 3600 nM; in test [6] it was 380 nM; in test [9], 3000 nM. Also, the Ratio in [5] stood at 10.37; in test [8], 0.99; in test [10], 1.76.
As to `CCCCCCn1cnc2c(Nc3cccc(Cl)c3)nc(N[C@H]3CC[C@H](N)CC3)nc21`, the IC50 is 195 nM in test [1] and 500 nM in test [7]. For the same compound, the GI50 in [2] is 10200 nM; in test [3], 5100 nM; in test [4], 2700 nM; in test [6], 310 nM; in [9], 2300 nM. Further, the Ratio in [5] amounted to 7.37; in test [8], 1.86; in test [10], 0.79.
For the compound `CS(=O)(=O)CCNCc1ccc(-c2ccc3ncnc(Nc4ccc(OCc5cccc(F)c5)c(Cl)c4)c3c2)o1` [LAPATINIB], the GI50 in test [2] was 22300 nM; in test [3], 200 nM; in [4], 8100 nM; in test [6] it was 410 nM; in test [9] it was 5700 nM.
Turning to `COc1ccc(Cn2cnc3c(Nc4cccc(Cl)c4)nc(N[C@H]4CC[C@H](N)CC4)nc32)cc1`, the half-inhibitory concentration (IC50) in test [1] worked out at 7660 nM; in [7], 5500 nM. Also, the 50% growth inhibitory concentration (GI50) in [2] is 18700 nM; in [3], 8200 nM; in test [4], 4800 nM; in test [6] it was 530 nM; in [9] it was 2800 nM. For the same compound, the Ratio amounted to 1.94 in [5], 0.96 in test [8] and 1.43 in test [10].
Take `N[C@H]1CC[C@H](Nc2nc(Nc3ccc(Cl)cc3)c3ncn(C4CCCCC4)c3n2)CC1`: the values for the half-inhibitory concentration (IC50) in test [1] and in [7] were 1090 nM and 965 nM, respectively. Further, the GI50 is 9100 nM in test [2]; 4100 nM in test [3]; 2300 nM in [4]; 140 nM in test [6]; 1700 nM in test [9]. For the same compound, the Ratio in test [5] is 2.68; in test [8], 2.64; in test [10], 0.79.
In the case of `CCCCn1cnc2c(Nc3ccccc3)nc(N[C@H]3CC[C@H](N)CC3)nc21`, the half-maximal inhibitory concentration (IC50) in test [1] worked out at 160 nM; in test [7], 134 nM. Moreover, the GI50 in test [2] is 9000 nM; in test [3], 4900 nM; in test [4] it was 2200 nM; in [6], 20 nM; in test [9] it was 3200 nM. For the same compound, the values for the Ratio in test [5], in test [8] and in test [10] were 0.33, 4.93 and 2.29, respectively.
Consider `CC(C)=CCC/C(C)=C/Cn1cnc2c(Nc3cccc(Cl)c3)nc(N[C@H]3CC[C@H](N)CC3)nc21`, for which the IC50 was 4740 nM in [1] and 7170 nM in [7]. The GI50 was 18200 nM in test [2]; 4300 nM in test [3]; 3600 nM in [4]; 590 nM in [6]; 2200 nM in [9]. In addition, the Ratio in test [5] came out at 1.94; in test [8], 1.13; in test [10], 1.78.
On to `CC(C)CCn1cnc2c(Nc3ccccc3)nc(N[C@H]3CC[C@H](N)CC3)nc21`, for which the half-maximal inhibitory concentration (IC50) in test [1] amounted to 96 nM; in test [7], 627 nM. The 50% growth inhibitory concentration (GI50) in test [2] was 21700 nM; in test [3], 6400 nM; in test [4], 5400 nM; in [6] it was 10 nM; in test [9], 3500 nM. The Ratio in test [5] is 0.39; in [8] it was 1.67; in test [10], 1.2.
Turning to `CCCCCCn1cnc2c(Nc3ccc(O)cc3)nc(N[C@H]3CC[C@H](N)CC3)nc21`, the values for the half-maximal inhibitory concentration (IC50) in test [1] and in test [7] were 452 nM and 485 nM, respectively. Also, the GI50 in [2] was 24700 nM; in [3], 7700 nM; in [4] it was 3500 nM; in [6], 190 nM; in [9], 5400 nM. For the same compound, the Ratio is on record as 0.44 in test [5], 2.5 in test [8] and 0.69 in test [10].
On to `CC(C)CCn1cnc2c(Nc3ccc(O)cc3)nc(N[C@H]3CC[C@H](N)CC3)nc21`, for which the IC50 in [1] is 150 nM; in test [7], 490 nM. Further, the GI50 is 14400 nM in test [2]; 7700 nM in test [3]; 3100 nM in [4]; 30 nM in test [6]; 4600 nM in [9]. The Ratio was 2.71 in [5], 1.17 in [8] and 0.73 in [10].
For the compound `CCCCCCn1cnc2c(Nc3cc(OC)cc(OC)c3)nc(N[C@H]3CC[C@H](N)CC3)nc21`, the IC50 in [1] came out at 1410 nM; in test [7], 680 nM. For the same compound, the GI50 is 9100 nM in test [2]; 3700 nM in test [3]; 3500 nM in [4]; 380 nM in test [6]; 1900 nM in test [9]. Moreover, the Ratio in test [5] turned out to be 9.67; in [8] it was 3.78; in test [10], 1.4.
On to `CCCCn1cnc2c(NCc3cccc(Cl)c3)nc(N[C@H]3CC[C@H](N)CC3)nc21`, for which the figures for the IC50 in [1] and in [7] were over 20000 nM and 207 nM, respectively. For the same compound, the 50% growth inhibitory concentration (GI50) in [2] was 10600 nM; in test [3], 4700 nM; in test [4] it was 2200 nM; in test [6] it was 350 nM; in test [9], 4300 nM. Moreover, the Ratio is 0.26 in test [5], 0.99 in [8] and 1.27 in [10].
As for `COc1cc(Nc2nc(N[C@H]3CC[C@H](N)CC3)nc3c2ncn3CCC(C)C)cc(OC)c1`, the figures for the IC50 in test [1] and in [7] were 290 nM and 980 nM, respectively. The 50% growth inhibitory concentration (GI50) in test [2] was 11200 nM; in test [3] it was 5900 nM; in [4], 4500 nM; in test [6], 140 nM; in [9] it was 2500 nM. For the same compound, the Ratio in [5] amounted to 1.47; in [8] it was 3.71; in [10], 1.6.
For `CCCCn1cnc2c(Nc3cccc(Cl)c3)nc(N[C@H]3CC[C@H](N)CC3)nc21`, the IC50 in test [1] was 154 nM; in test [7] it was 132 nM. The 50% growth inhibitory concentration (GI50) in test [2] is 7200 nM; in test [3], 5100 nM; in test [4], 2000 nM; in [6], 160 nM; in [9] it was 2000 nM. The Ratio was found to be 0.54 in test [5], 10.75 in test [8] and 0.78 in [10].
With `CCCCn1cnc2c(Nc3cc(OC)cc(OC)c3)nc(N[C@H]3CC[C@H](N)CC3)nc21`, the IC50 in [1] was found to be 1500 nM; in test [7] it was 442 nM. In addition, the GI50 in test [2] was 20100 nM; in test [3] it was 15600 nM; in test [4], 4500 nM; in test [6], 370 nM; in [9] it was 2400 nM. The values for the Ratio in [5], in [8] and in test [10] were 1.35, 1.3 and 0.82, respectively.
